For the test, the target named is T1, PRMT5-MEP50 enzyme complex (Homo sapiens, UniProt O14744).
T1 construct: purchased BPS Bioscience (USA) 51045
T1 sequence (O14744 2-637 limits assumed): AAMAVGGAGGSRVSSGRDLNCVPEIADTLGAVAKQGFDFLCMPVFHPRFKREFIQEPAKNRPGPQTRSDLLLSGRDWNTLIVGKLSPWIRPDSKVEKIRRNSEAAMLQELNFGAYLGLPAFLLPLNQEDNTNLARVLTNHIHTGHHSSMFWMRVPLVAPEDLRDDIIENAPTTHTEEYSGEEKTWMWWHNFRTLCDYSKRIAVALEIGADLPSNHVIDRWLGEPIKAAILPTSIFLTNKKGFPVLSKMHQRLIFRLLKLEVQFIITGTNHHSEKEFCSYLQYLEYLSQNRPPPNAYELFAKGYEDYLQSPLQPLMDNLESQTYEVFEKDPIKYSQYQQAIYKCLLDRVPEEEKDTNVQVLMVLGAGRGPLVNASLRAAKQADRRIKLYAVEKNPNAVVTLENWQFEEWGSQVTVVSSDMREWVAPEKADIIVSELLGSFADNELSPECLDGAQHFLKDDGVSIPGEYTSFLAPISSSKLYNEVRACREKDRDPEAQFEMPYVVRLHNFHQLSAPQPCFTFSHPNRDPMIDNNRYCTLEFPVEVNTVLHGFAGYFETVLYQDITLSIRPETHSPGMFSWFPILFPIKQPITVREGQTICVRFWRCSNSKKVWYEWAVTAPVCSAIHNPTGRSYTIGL
T1 sequence (Q9BQA1 2-342 partner limits assumed): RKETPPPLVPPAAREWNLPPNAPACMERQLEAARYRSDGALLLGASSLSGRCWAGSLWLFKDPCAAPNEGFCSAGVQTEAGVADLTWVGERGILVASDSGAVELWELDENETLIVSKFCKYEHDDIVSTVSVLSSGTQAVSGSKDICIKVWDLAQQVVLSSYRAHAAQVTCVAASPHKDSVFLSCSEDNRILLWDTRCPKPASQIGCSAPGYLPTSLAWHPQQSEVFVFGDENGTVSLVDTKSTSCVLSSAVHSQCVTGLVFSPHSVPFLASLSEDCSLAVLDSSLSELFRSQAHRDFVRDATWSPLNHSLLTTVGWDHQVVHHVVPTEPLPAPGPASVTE
Briefly: In vitro PRMT5 enzyme activity assay (methylation of histone H4 arginine H4R3, ELISA absorbance at 450 nm). The test is classed as biochemical. To be noted: S-adenosylmethionine, histone H4 peptide, 2 hours at room temperature, 8 points 10 μM to 0.128 nM. In short, it runs like this: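 Human PRMT5-MEP50 (5 μg/mL working stock) with 2 μM SAM stock on histone H4 (1-20) peptide-coated plates, compound 8-point 1:5 series from 10 μM, 2 h at room temperature. H4R3 methylation detected by antibody/HRP ELISA, absorbance 450 nm; IC50 calculated.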
In general, IC50 refers to the concentration that inhibits the measured activity by half. High values mean weaker potency in that assay, low ones greater potency in that assay. Consider `CC(=O)N1CCC(Nc2ccc3c(c2)CCN(C[C@H](O)CN2CCc4ccccc4C2)C3=O)CC1` [Example 32, 6-[(1-acetyl-4-piperidyl)amino]-2-[(2R)-3-(3,4-dihydro-1H-isoquinolin-2-yl)-2-hydroxy-propyl]-3,4-dihydroisoquinolin-1-one], for which the IC50 was 1 to 100 nM.
As for `CN1CCN(c2ccc3c(c2)CCN(C[C@H](O)CN2CCc4ccccc4C2)C3=O)CC1` [Example 17, 2-[(2R)-3-(3,4-dihydro-1H-isoquinolin-2-yl)-2-hydroxy-propyl]-6-(4-methylpiperazin-1-yl)-3,4-dihydroisoquinolin-1-one], the figure is 1 to 100 nM; as for `O=C1c2ccc(N3CCNCC3)cc2CCN1C[C@H](O)CN1CCc2ccccc2C1` [Example 58, 2-[(2R)-3-(3,4-dihydro-1H-isoquinolin-2-yl)-2-hydroxy-propyl]-6-piperazin-1-yl-3,4-dihydroisoquinolin-1-one], 1 to 100 nM.
To `O=C1c2ccc(NC3COC3)cc2CCN1C[C@H](O)CN1CCc2ccccc2C1` [Example 51, 2-[(2R)-3-(3,4-dihydro-1H-isoquinolin-2-yl)-2-hydroxy-propyl]-6-(oxetan-3-ylamino)-3,4-dihydroisoquinolin-1-one] belongs 100 to 1000 nM; to `CC1(C)CN(C[C@H](O)CN2CCc3ccccc3C2)C(=O)c2ccc(N3CCC(N4CCCC4)CC3)cc21` [Example 124, 2-[(2R)-3-(3,4-dihydro-1H-isoquinolin-2-yl)-2-hydroxy-propyl]-4,4-dimethyl-6-(4-pyrrolidin-1-yl-1-piperidyl)-3H-isoquinolin-1-one], 1 to 100 nM; to `O=C1c2ccc(OC3CCCN(CCF)C3)cc2CCN1C[C@H](O)CN1CCc2ccccc2C1` (stereo partly drawn) [Example 140, 2-[(2R)-3-(3,4-dihydro-1H-isoquinolin-2-yl)-2-hydroxypropyl]-6-[[1-(2-fluoroethyl)-3-piperidyl]oxy]-3,4-dihydroisoquinolin-1-one], 100 to 1000 nM.
To `C[C@@H]1CN(c2ccc3c(c2)CCN(C[C@H](O)CN2CCc4ccccc4C2)C3=O)CCO1` [Example 16, 2-[(2R)-3-(3,4-dihydro-1H-isoquinolin-2-yl)-2-hydroxy-propyl]-6-[(2R)-2-methylmorpholin-4-yl]-3,4-dihydroisoquinolin-1-one] belongs 1 to 100 nM.
For `O=C1c2ccc(N3CCCCC3=O)cc2CCN1C[C@H](O)CN1CCc2ccccc2C1` [Example 21, 2-[(2R)-3-(3,4-dihydro-1H-isoquinolin-2-yl)-2-hydroxy-propyl]-6-(2-oxo-1-piperidyl)-3,4-dihydroisoquinolin-1-one], the IC50 lay in the range of 100 to 1000 nM.
As for `O=C1c2ccc(N3CCN(C4COC4)CC3)cc2CCN1C[C@H](O)CN1CCc2ccccc2C1` [Example 121, 2-[(2R)-3-(3,4-dihydro-1H-isoquinolin-2-yl)-2-hydroxy-propyl]-6-[4-(oxetan-3-yl)piperazin-1-yl]-3,4-dihydroisoquinolin-1-one], the figure is 100 to 1000 nM; as for `COCCN1CCN(c2ccc3c(c2)CCN(C[C@H](O)CN2CCc4ccccc4C2)C3=O)CC1` [Example 109, 2-[(2R)-3-(3,4-dihydro-1H-isoquinolin-2-yl)-2-hydroxy-propyl]-6-[4-(2-methoxyethyl)piperazin-1-yl]-3,4-dihydroisoquinolin-1-one], 100 to 1000 nM.
To `CC(C)C(=O)N1CCN(c2ccc3c(c2)CCN(C[C@H](O)CN2CCc4ccccc4C2)C3=O)CC1` [Example 70, 2-[(2R)-3-(3,4-dihydro-1H-isoquinolin-2-yl)-2-hydroxy-propyl]-6-[4-(2-methylpropanoyl)piperazin-1-yl]-3,4-dihydroisoquinolin-1-one] belongs 1 to 100 nM.
To `O=C1c2ccc(C3=CCNCC3)cc2CCN1C[C@H](O)CN1CCc2ccccc2C1` [Example 57, 2-[(2R)-3-(3,4-dihydro-1H-isoquinolin-2-yl)-2-hydroxy-propyl]-6-(1,2,3,6-tetrahydropyridin-4-yl)-3,4-dihydroisoquinolin-1-one] belongs 1 to 100 nM; to `CN(C)CC#Cc1ccc2c(c1)CCN(C[C@H](O)CN1CCc3ccccc3C1)C2=O` [Example 141, 2-[(2R)-3-(3,4-dihydro-1H-isoquinolin-2-yl)-2-hydroxypropyl]-6-[3-(dimethylamino)prop-1-ynyl]-3,4-dihydroisoquinolin-1-one], 100 to 1000 nM; to `O=C1c2ccc(N3CCCC3)cc2CCN1C[C@H](O)CN1CCc2ccccc2C1` [Example 2, 2-[(2R)-3-(3,4-dihydro-1H-isoquinolin-2-yl)-2-hydroxy-propyl]-6-pyrrolidin-1-yl-3,4-dihydroisoquinolin-1-one], 100 to 1000 nM.
Turning to `CC1(C)CN(C[C@H](O)CN2CCc3ccccc3C2)C(=O)c2ccc(N3CCN(C=O)CC3)cc21` [Example 125, 4-[2-[(2R)-3-(3,4-dihydro-1H-isoquinolin-2-yl)-2-hydroxy-propyl]-4,4-dimethyl-1-oxo-3H-isoquinolin-6-yl]piperazine-1-carbaldehyde], the 50% inhibitory concentration (IC50) was 100 to 1000 nM.
As for `CC(=O)N1CCC(CNc2ccc3c(c2)CCN(C[C@H](O)CN2CCc4ccccc4C2)C3=O)CC1` [Example 24, 6-[(1-acetyl-4-piperidyl)methylamino]-2-[(2R)-3-(3,4-dihydro-1H-isoquinolin-2-yl)-2-hydroxy-propyl]-3,4-dihydroisoquinolin-1-one], the figure is 1 to 100 nM; as for `O=C1c2ccc(NC3CCOC3)cc2CCN1C[C@H](O)CN1CCc2ccccc2C1` (stereo partly drawn) [Example 50, 2-[(2R)-3-(3,4-dihydro-1H-isoquinolin-2-yl)-2-hydroxy-propyl]-6-(tetrahydrofuran-3-ylamino)-3,4-dihydroisoquinolin-1-one], 100 to 1000 nM; as for `O=C1c2ccc(N3CCN(C4CCOC4)CC3)cc2CCN1C[C@H](O)CN1CCc2ccccc2C1` (stereo partly drawn) [Example 127, 2-[(2R)-3-(3,4-dihydro-1H-isoquinolin-2-yl)-2-hydroxy-propyl]-6-(4-tetrahydrofuran-3-ylpiperazin-1-yl)-3,4-dihydroisoquinolin-1-one], 1 to 100 nM.
To `CN1CCC(Oc2ccc3c(c2)CCN(C[C@H](O)CN2CCc4ccccc4C2)C3=O)C1` (stereo partly drawn) [Example 133, 2-[(2R)-3-(3,4-dihydro-1H-isoquinolin-2-yl)-2-hydroxy-propyl]-6-(1-methylpyrrolidin-3-yl)oxy-3,4-dihydroisoquinolin-1-one] belongs 1 to 100 nM; to `O=C1c2ccc(OCCN3CCOCC3)cc2CCN1C[C@H](O)CN1CCc2ccccc2C1` [Example 113, 2-[(2R)-3-(3,4-dihydro-1H-isoquinolin-2-yl)-2-hydroxy-propyl]-6-(2-morpholinoethoxy)-3,4-dihydroisoquinolin-1-one], 1 to 100 nM.
To `O=C1c2ccc(N3CC(CO)C3)cc2CCN1C[C@H](O)CN1CCc2ccccc2C1` [Example 46, 2-[(2R)-3-(3,4-dihydro-1H-isoquinolin-2-yl)-2-hydroxy-propyl]-6-[3-(hydroxymethyl)azetidin-1-yl]-3,4-dihydroisoquinolin-1-one] belongs 100 to 1000 nM; to `O=C1c2ccc(N3CC4(COC4)C3)cc2CCN1C[C@H](O)CN1CCc2ccccc2C1` [Example 44, 2-[(2R)-3-(3,4-dihydro-1H-isoquinolin-2-yl)-2-hydroxy-propyl]-6-(2-oxa-6-azaspiro[3.3]heptan-6-yl)-3,4-dihydroisoquinolin-1-one], 1 to 100 nM.
